From ChEMBL document CHEMBL4823243, “Synergistic induction of apoptosis in resistant head and neck carcinoma and leukemia by alkoxyamide-based histone deacetylase inhibitors” (Eur J Med Chem, 2021)
Activity calls are given as the source filed them. The rule behind the calls is not given here.

What was measured:
Histone deacetylase [1] = experiment: Inhibition of HDAC in human CAL-27 cells using Boc-Lys (acetyl)-AMC as substrate preincubated for 18 hrs followed by susbtrate addition and measured after 3 hrs by fluorescence microplate reader assay; format: cell-based
CAL-27 [2] = experiment: Induction of DNA damage in human CAL-27 cells assessed as increase in gamma H2AX phosphorylation pretreated for 24 hrs followed by cisplatin treatment and further incubated for 18 hrs measured by Western blot analysis; format: functional, cell-based; details: time 42.0 hrs
[3] = target: T1, Histone deacetylase (Homo sapiens) (UniProt Q13547+O15379+Q9UBN7+Q92769+Q9UQL6+Q8WUI4+Q9BY41+Q96DB2+P56524+Q9UKV0+Q969S8); experiment: Inhibition of HDAC in human Cal27CisR cells assessed as combination index at 0.5 uM measured in presence of 10 uM cDDP by MTT-based Chou-Talalay method; format: cell-based
[4] = target: T1, Histone deacetylase (Homo sapiens); experiment: Inhibition of HDAC in human Cal27CisR cells assessed as combination index at 0.5 uM measured in presence of 50 uM cDDP by MTT-based Chou-Talalay method; format: cell-based
A2780 = experiment: Antiproliferative activity against human A2780 cells assessed as reduction in cell viability after 72 hrs by MTT assay; format: functional, cell-based; details: A2780, 72 h
CAL-27 [5] = experiment: Induction of DNA damage in human CAL-27 cells assessed as upregulation of gamma H2AX in presence cisplatin measured by Western blot analysis; format: functional, cell-based
[6] = target: T2, Protein deacetylase HDAC6 (Homo sapiens) (UniProt Q9UBN7); experiment: Inhibition of HDAC6 in human CAL-27 cells assessed as accumulation of acetylated alpha-tubulin at 5 uM for 24 hrs by Western blot analysis; format: cell-based
T2 sequence (whole entry): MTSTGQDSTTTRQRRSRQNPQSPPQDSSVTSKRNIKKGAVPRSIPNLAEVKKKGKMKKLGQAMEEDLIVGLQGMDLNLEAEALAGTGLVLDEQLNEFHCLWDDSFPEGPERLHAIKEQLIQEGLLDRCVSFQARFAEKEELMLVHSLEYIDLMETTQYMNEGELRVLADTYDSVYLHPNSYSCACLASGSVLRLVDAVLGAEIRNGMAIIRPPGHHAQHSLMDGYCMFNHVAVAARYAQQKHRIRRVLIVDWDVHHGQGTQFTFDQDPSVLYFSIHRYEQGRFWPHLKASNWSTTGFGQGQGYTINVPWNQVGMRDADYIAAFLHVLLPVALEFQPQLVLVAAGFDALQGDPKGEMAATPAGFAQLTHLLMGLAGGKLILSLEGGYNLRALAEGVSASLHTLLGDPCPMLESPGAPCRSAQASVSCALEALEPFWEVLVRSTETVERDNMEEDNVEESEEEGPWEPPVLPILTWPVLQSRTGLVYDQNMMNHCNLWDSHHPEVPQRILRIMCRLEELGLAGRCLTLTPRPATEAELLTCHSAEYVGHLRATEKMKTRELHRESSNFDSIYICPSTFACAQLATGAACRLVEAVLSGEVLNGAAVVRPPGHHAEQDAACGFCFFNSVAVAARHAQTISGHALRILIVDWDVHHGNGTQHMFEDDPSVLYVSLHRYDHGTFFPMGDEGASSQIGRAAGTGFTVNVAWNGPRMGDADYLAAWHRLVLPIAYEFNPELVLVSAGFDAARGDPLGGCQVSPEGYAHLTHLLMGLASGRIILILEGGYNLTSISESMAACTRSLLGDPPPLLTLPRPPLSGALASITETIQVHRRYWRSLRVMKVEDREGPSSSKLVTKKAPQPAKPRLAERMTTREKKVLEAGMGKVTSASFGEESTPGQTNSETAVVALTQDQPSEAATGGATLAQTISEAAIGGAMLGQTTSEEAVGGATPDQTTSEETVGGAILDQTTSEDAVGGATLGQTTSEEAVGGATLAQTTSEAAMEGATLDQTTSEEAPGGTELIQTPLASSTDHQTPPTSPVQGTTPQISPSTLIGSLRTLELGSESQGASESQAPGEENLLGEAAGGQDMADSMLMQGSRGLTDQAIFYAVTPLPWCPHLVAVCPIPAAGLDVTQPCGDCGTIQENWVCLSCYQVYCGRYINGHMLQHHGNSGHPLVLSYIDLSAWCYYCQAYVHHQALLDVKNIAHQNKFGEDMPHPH

Histone deacetylase 4 = Histone deacetylase 4 (Homo sapiens, UniProt P56524); experiment: Inhibition of recombinant human N-terminal GST-fusion tagged/C-terminal GST-tagged HDAC4 (627 to 1084 residues) expressed in baculovirus infected insect cells using Boc-Lys(TFA)-AMC as substrate preincubated for 5 mins followed by substrate addition measured after 90 mins by fluorimetry
Histone deacetylase 4, sequence (P56524 whole entry, the tested form may be a part): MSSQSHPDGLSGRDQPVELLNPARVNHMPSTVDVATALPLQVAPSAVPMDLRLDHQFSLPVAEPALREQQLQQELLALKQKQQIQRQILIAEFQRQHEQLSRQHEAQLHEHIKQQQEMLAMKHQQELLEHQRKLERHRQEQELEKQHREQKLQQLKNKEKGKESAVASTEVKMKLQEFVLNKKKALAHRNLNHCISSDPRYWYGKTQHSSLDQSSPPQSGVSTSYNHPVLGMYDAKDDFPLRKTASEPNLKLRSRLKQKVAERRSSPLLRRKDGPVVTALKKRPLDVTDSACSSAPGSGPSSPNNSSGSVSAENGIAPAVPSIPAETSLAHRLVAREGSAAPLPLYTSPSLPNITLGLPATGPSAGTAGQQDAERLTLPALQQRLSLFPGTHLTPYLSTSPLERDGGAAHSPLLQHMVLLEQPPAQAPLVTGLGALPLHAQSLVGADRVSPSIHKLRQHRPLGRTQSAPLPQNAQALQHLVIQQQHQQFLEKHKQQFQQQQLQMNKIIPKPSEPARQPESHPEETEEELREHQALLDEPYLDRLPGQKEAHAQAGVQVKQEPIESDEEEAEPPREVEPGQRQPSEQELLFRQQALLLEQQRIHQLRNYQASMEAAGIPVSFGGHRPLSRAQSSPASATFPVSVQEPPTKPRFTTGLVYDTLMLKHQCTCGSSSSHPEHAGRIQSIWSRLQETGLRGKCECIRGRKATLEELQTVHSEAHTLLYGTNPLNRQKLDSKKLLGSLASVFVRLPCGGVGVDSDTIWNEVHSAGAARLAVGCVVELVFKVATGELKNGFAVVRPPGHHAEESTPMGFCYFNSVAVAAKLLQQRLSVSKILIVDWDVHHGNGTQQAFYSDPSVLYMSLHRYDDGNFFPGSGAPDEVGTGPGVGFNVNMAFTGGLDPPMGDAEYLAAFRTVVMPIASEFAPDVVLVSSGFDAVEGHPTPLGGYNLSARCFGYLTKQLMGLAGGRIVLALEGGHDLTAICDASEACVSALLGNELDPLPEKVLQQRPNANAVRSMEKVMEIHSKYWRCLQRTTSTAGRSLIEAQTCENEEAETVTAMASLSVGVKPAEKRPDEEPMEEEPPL

Cal27CisR = experiment: Induction of DNA damage human Cal27CisR cells assessed as upregulation of gamma H2AX in presence cisplatin measured by Western blot analysis; format: functional
Histone deacetylase 8 = target: T3, Histone deacetylase 8 (Homo sapiens, UniProt Q9BY41); experiment: Inhibition of recombinant human C-terminal His-fusion tagged/N-terminal Strep2 tagged HDAC8 (1 to 377 residues) expressed in insect cells using Boc-Lys(TFA)-AMC as substrate preincubated for 5 mins followed by substrate addition measured after 90 mins by fluorimetry
T3 sequence (Q9BY41 whole entry): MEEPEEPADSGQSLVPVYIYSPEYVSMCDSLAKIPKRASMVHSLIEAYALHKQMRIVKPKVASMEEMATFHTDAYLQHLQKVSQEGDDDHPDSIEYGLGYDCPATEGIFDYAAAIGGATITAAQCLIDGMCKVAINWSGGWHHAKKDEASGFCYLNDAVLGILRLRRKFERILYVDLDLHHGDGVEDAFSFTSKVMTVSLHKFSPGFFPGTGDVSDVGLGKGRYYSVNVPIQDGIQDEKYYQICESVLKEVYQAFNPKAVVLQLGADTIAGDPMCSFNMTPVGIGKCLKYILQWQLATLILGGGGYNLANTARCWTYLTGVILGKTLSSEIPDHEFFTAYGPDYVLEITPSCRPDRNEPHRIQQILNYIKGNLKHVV

Histone deacetylase [7] = experiment: Inhibition of HDAC in human A2780 cells using Boc-Lys (acetyl)-AMC as substrate preincubated for 18 hrs followed by susbtrate addition and measured after 3 hrs by fluorescence microplate reader assay; format: cell-based
CAL-27 [8] = experiment: Antiproliferative activity against human CAL-27 cells assessed as reduction in cell viability after 72 hrs by MTT assay; format: functional, cell-based; details: CAL-27, 72 h
[9] = target: Class 1 histone deacetylase (Homo sapiens) (UniProt Q13547+O15379+Q92769+Q9BY41); experiment: Inhibition of class-1 HDAC in human CAL-27 cells assessed as induction of histone H-3 acetylation at 5 uM for 24 hrs by Western blot analysis; format: cell-based
Histone deacetylase 2 = Histone deacetylase 2 (Homo sapiens, UniProt Q92769); experiment: Inhibition of recombinant human full length C-terminal GST-fusion tagged HDAC2 expressed in baculovirus infected insect cells using Boc-Lys(Ac)-AMC as substrate preincubated for 5 mins followed by substrate addition measured after 90 mins by fluorimetry; format: cell-based
Histone deacetylase 2, sequence (Q92769 whole entry, the tested form may be a part): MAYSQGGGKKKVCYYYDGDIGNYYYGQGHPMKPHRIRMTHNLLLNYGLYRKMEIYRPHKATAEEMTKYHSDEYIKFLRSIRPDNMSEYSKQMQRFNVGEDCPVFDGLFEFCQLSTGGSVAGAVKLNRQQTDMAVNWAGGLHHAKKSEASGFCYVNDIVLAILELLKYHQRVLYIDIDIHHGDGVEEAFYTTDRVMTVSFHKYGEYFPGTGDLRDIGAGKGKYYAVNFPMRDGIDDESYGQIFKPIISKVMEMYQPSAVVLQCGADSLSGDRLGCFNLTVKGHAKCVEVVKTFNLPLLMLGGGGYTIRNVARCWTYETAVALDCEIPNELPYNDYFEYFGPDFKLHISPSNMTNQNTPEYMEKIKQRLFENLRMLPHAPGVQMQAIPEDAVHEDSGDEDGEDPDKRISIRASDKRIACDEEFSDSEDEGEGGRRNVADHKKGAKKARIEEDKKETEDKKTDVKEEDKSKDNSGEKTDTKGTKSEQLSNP

IC50 (Histone deacetylase [1]) [nM] | CI [3] | CI [4] | IC50 (A2780) [nM] | inhibition [6] | IC50 (Histone deacetylase 4) [nM] | IC50 (Histone deacetylase 8) [nM] | IC50 (Histone deacetylase [7]) [nM] | Activity [9] | IC50 (Histone deacetylase 2) [nM] | Compound | Activity (CAL-27 [2]) | Activity (CAL-27 [5]) | Activity (Cal27CisR) | IC50 (CAL-27 [8]) [nM]
180 | 0.13 | 0.5 | 800 | Active | > 100000 | 9780 | 480 | Active | 92 | O=C(CCCCCONC(=O)c1ccc2ccccc2n1)NO | Active | Active | Active | 250
120 | 0.27 | 0.47 | 4050 | Active | 55700 | 10300 | 670 | Active | 57 | O=C(CCCCCONC(=O)c1cc2ccccc2[nH]1)NO | Active | Active | Active | 300
1500 | 1.11 | 0.97 | 19900 | Active | > 100000 | 12400 | 250 | Active | 759 | O=C(CCCCCONC(=O)c1nccc2ccccc12)NO | Active | Active | Active | 2120
